From patent publication US20150291610A1, “C20' Urea Derivatives of Vinca Alkaloids” (THE SCRIPPS RESEARCH INSTITUTE, priority 2012, published 2015)
Like-named read-outs stand apart in the source and are kept apart here.

Columns and labels:
[1] = system: L1210 (mouse lymphocytic leukemia) cells; test: Cell growth inhibition assay, L1210; assay type: cell-based; details: L1210 murine leukemia cell line; avg of 4-16 determinations
Description: (§1) A population of cells (>1×10^6 cells/mL as determined with a hemocytometer) was diluted with an appropriate amount of Dulbecco-modified Eagle Medium (DMEM, Gibco) containing 10% fetal bovine serum (FBS, Gibco) to a final concentration of 30,000 cells/mL.
(§2) To each well of a 96-well plate (Corning Costar), 100 μL of the cell-media solution was added with a multichannel pipette. The cultures were incubated at 37° C. in an atmosphere of 5% CO2 and 95% humidified air for 24 hours. The test compounds were added to the plate as follows: test substances were diluted in DMSO to a concentration of 1 mM and 10-fold serial dilutions were performed on a separate 96-well plate. Fresh culture medium (100 μL) was added to each well of cells to constitute 200 μL of medium per well followed by 2 μL of each test agent. Compounds were tested in duplicate (n=2-8 times) at six concentrations between 0-1,000 nM or 0-10,000 nM. Following addition, cultures were incubated for an additional 72 hours.
(§3) The plates were incubated at 37° C. for either 5 minutes (L1210) or 15 minutes (HCT116 and HCT116/VM46).

[2] = system: HCT116/VM46 (vinblastine-resistant strain of HCT116, Pgp over-expression) cells; test: Cell growth inhibition assay, HCT116/VM46; details: for IC50: read-out: IC50 (nM) HCT116/VM46, resistant human colon cancer cell line, Pgp over-expression; for fold improvement over vinblastine, HCT116/VM46: relative to vinblastine; for activity difference between sensitive HCT116 and vinblastine-resistant HCT116/VM46: HCT116/VM46 vs HCT116
Description: as §1, §2, §3

[3] = system: HCT116 (human colorectal carcinoma) cells; test: Cell growth inhibition assay, HCT116; assay type: cell-based
Description: as §1, §2, §3

[4] = HCT116 human colon cancer cell line, avg of 4-16 determinations, read-out: IC50 (nM) HCT116

SMILES	IC50 [1]	IC50 [2]	IC50 [3, 4]	also measured
CC[C@]1(NC(=O)N2CCN(C)CC2)C[C@@H]2CN(CCc3c([nH]c4ccccc34)[C@@](C(=O)OC)(c3cc4c(cc3OC)N(C)[C@H]3[C@@](O)(C(=O)OC)[C@H](OC(C)=O)[C@]5(CC)C=CCN6CC[C@]43[C@@H]65)C2)C1 [Compound 54]	7.7 nM	710 nM	3.4 nM	
CC[C@]12C=CCN3CC[C@@]4(c5cc([C@@]6(C(=O)OC)C[C@H]7CN(CCc8c6[nH]c6ccccc86)C[C@@](CC)(N(C)C)C7)c(OC)cc5N(C)[C@H]4[C@@](O)(C(=O)OC)[C@@H]1OC(C)=O)[C@@H]32 [Compound 46]		> 10000 nM	980 nM	
CCC1(NC(=O)NC)CC2CN(CCc3c([nH]c4ccccc34)C(C(=O)OC)(c3cc4c(cc3OC)N(C)C3C(O)(C(=O)OC)C(OC(C)=O)C5(CC)C=CCN6CCC43C65)C2)C1 (stereo not shown) [Compound 14]	5.7 nM	530 nM	0.82 nM	
CCC1(OC(=O)N(C)C)CC2CN(CCc3c([nH]c4ccccc34)C(C(=O)OC)(c3cc4c(cc3OC)N(C)C3C(O)(C(=O)OC)C(OC(C)=O)C5(CC)C=CCN6CCC43C65)C2)C1 (stereo not shown) [Compound 44]		9100 nM	4700 nM	fold less active than N,N-dimethyl urea or thiourea 39 and 43 ([3]; HCT116): > 1000 fold
CC[C@]1(NC(=O)NCc2ccco2)C[C@@H]2CN(CCc3c([nH]c4ccccc34)[C@@](C(=O)OC)(c3cc4c(cc3OC)N(C)[C@H]3[C@@](O)(C(=O)OC)[C@H](OC(C)=O)[C@]5(CC)C=CCN6CC[C@]43[C@@H]65)C2)C1 [Compound 34]	5.4 nM	530 nM	5.1 nM	
CC[C@]1(NC(=O)N2CCC(c3ccccc3)CC2)C[C@@H]2CN(CCc3c([nH]c4ccccc34)[C@@](C(=O)OC)(c3cc4c(cc3OC)N(C)[C@H]3[C@@](O)(C(=O)OC)[C@H](OC(C)=O)[C@]5(CC)C=CCN6CC[C@]43[C@@H]65)C2)C1 [Compound 56]	5.3 nM	55 nM	3.1 nM	
CC[C@]1(NC(=O)NC(C)C)C[C@@H]2CN(CCc3c([nH]c4ccccc34)[C@@](C(=O)OC)(c3cc4c(cc3OC)N(C)[C@H]3[C@@](O)(C(=O)OC)[C@H](OC(C)=O)[C@]5(CC)C=CCN6CC[C@]43[C@@H]65)C2)C1 [Compound 17]	5.5 nM	430 nM	5.7 nM	
CCNC(=O)NC1(CC)CC2CN(CCc3c([nH]c4ccc(F)cc34)C(C(=O)OC)(c3cc4c(cc3OC)N(C)C3C(O)(C(=O)OC)C(OC(C)=O)C5(CC)C=CCN6CCC43C65)C2)C1 (stereo not shown) [Compound 49]		70 nM		fold improvement over vinblastine, HCT116/VM46 [2]: ~10 fold; fold more potent than vinblastine, HCT116 ([3]; relative to vinblastine): at least 10 fold; IC50 ([3]; text values in pM, read-out: IC50 HCT116): 0.62 nM
CC[C@]1(NC(=O)Oc2ccc([N+](=O)[O-])cc2)C[C@@H]2CN(CCc3c([nH]c4ccccc34)[C@@](C(=O)OC)(c3cc4c(cc3OC)N(C)[C@H]3[C@@](O)(C(=O)OC)[C@H](OC(C)=O)[C@]5(CC)C=CCN6CC[C@]43[C@@H]65)C2)C1 [Compound 13]			55 nM	
CCC1(NC(=S)Nc2ccccc2)CC2CN(CCc3c([nH]c4ccccc34)C(C(=O)OC)(c3cc4c(cc3OC)N(C)C3C(O)(C(=O)OC)C(OC(C)=O)C5(CC)C=CCN6CCC43C65)C2)C1 (stereo not shown) [Compound 37]		650 nM	40 nM	
CC[C@]1(NC(=O)NCc2ccccn2)C[C@@H]2CN(CCc3c([nH]c4ccccc34)[C@@](C(=O)OC)(c3cc4c(cc3OC)N(C)[C@H]3[C@@](O)(C(=O)OC)[C@H](OC(C)=O)[C@]5(CC)C=CCN6CC[C@]43[C@@H]65)C2)C1 [Compound 33]	24 nM	670 nM	5.6 nM	
CC[C@]1(NC(=O)NCCc2ccccc2)C[C@@H]2CN(CCc3c([nH]c4ccccc34)[C@@](C(=O)OC)(c3cc4c(cc3OC)N(C)[C@H]3[C@@](O)(C(=O)OC)[C@H](OC(C)=O)[C@]5(CC)C=CCN6CC[C@]43[C@@H]65)C2)C1 [Compound 32]	6.3 nM	590 nM	6.3 nM	
CC[C@]1(NC(=O)NCc2ccccc2)C[C@@H]2CN(CCc3c([nH]c4ccccc34)[C@@](C(=O)OC)(c3cc4c(cc3OC)N(C)[C@H]3[C@@](O)(C(=O)OC)[C@H](OC(C)=O)[C@]5(CC)C=CCN6CC[C@]43[C@@H]65)C2)C1 [Compound 31]	6.4 nM	740 nM	7.3 nM	
CC[C@]1(NC(=O)Nc2ccc(C(F)(F)F)cc2)C[C@@H]2CN(CCc3c([nH]c4ccccc34)[C@@](C(=O)OC)(c3cc4c(cc3OC)N(C)[C@H]3[C@@](O)(C(=O)OC)[C@H](OC(C)=O)[C@]5(CC)C=CCN6CC[C@]43[C@@H]65)C2)C1 [Compound 27]	7.3 nM	610 nM	7.1 nM	
CC[C@]1(NC(=O)N2Cc3ccc(OC)cc3C2)C[C@@H]2CN(CCc3c([nH]c4ccccc34)[C@@](C(=O)OC)(c3cc4c(cc3OC)N(C)[C@H]3[C@@](O)(C(=O)OC)[C@H](OC(C)=O)[C@]5(CC)C=CCN6CC[C@]43[C@@H]65)C2)C1 [Compound 59]	0.61 nM	8.7 nM	0.69 nM	
CC[C@]1(NC(=O)NCCO)C[C@@H]2CN(CCc3c([nH]c4ccccc34)[C@@](C(=O)OC)(c3cc4c(cc3OC)N(C)[C@H]3[C@@](O)(C(=O)OC)[C@H](OC(C)=O)[C@]5(CC)C=CCN6CC[C@]43[C@@H]65)C2)C1 [Compound 22]	48 nM	> 1000 nM	8.8 nM	
CCCNC(=O)N[C@@]1(CC)C[C@@H]2CN(CCc3c([nH]c4ccccc34)[C@@](C(=O)OC)(c3cc4c(cc3OC)N(C)[C@H]3[C@@](O)(C(=O)OC)[C@H](OC(C)=O)[C@]5(CC)C=CCN6CC[C@]43[C@@H]65)C2)C1 [Compound 16]	6 nM	221 nM	2.7 nM	
CCNC(=O)N[C@@]1(CC)C[C@@H]2CN(CCc3c([nH]c4ccccc34)[C@@](C(=O)OC)(c3cc4c(cc3OC)N(C)[C@H]3[C@@](O)(C(=O)OC)[C@H](OC(C)=O)[C@]5(CC)C=CCN6CC[C@]43[C@@H]65)C2)C1 [Compound 15]	2.1 nM	90 nM	0.73 nM	fold improvement over vinblastine, HCT116/VM46 [2]: 10 fold
CC[C@]1(NC(=S)NC2CCCCC2)C[C@@H]2CN(CCc3c([nH]c4ccccc34)[C@@](C(=O)OC)(c3cc4c(cc3OC)N(C)[C@H]3[C@@](O)(C(=O)OC)[C@H](OC(C)=O)[C@]5(CC)C=CCN6CC[C@]43[C@@H]65)C2)C1 [Compound 36]		520 nM	20 nM	
CC[C@]1(NC(=O)Nc2ccccc2)C[C@@H]2CN(CCc3c([nH]c4ccccc34)[C@@](C(=O)OC)(c3cc4c(cc3OC)N(C)[C@H]3[C@@](O)(C(=O)OC)[C@H](OC(C)=O)[C@]5(CC)C=CCN6CC[C@]43[C@@H]65)C2)C1 [Compound 23]	6.5 nM	390 nM	5.1 nM	
CC[C@]1(NC)C[C@@H]2CN(CCc3c([nH]c4ccccc34)[C@@](C(=O)OC)(c3cc4c(cc3OC)N(C)[C@H]3[C@@](O)(C(=O)OC)[C@H](OC(C)=O)[C@]5(CC)C=CCN6CC[C@]43[C@@H]65)C2)C1 [Compound 45, 20′-(methylamino)vinblastine]		8500 nM	60 nM	
CC[C@]1(NC(=O)N2CCSCC2)C[C@@H]2CN(CCc3c([nH]c4ccccc34)[C@@](C(=O)OC)(c3cc4c(cc3OC)N(C)[C@H]3[C@@](O)(C(=O)OC)[C@H](OC(C)=O)[C@]5(CC)C=CCN6CC[C@]43[C@@H]65)C2)C1 [Compound 53]	2.1 nM	50 nM	0.88 nM	
CC[C@]1(NC(=O)N2CCCCC2)C[C@@H]2CN(CCc3c([nH]c4ccccc34)[C@@](C(=O)OC)(c3cc4c(cc3OC)N(C)[C@H]3[C@@](O)(C(=O)OC)[C@H](OC(C)=O)[C@]5(CC)C=CCN6CC[C@]43[C@@H]65)C2)C1 [Compound 42]	5.5 nM	50 nM	3.9 nM	activity difference between sensitive HCT116 and vinblastine-resistant HCT116/VM46 [2]: 10 fold
CC[C@]1(NC(=S)NCCc2ccc(F)cc2)C[C@@H]2CN(CCc3c([nH]c4ccccc34)[C@@](C(=O)OC)(c3cc4c(cc3OC)N(C)[C@H]3[C@@](O)(C(=O)OC)[C@H](OC(C)=O)[C@]5(CC)C=CCN6CC[C@]43[C@@H]65)C2)C1 [Compound 38]		750 nM	60 nM	
CCN(CC)C(=O)N[C@@]1(CC)C[C@@H]2CN(CCc3c([nH]c4ccccc34)[C@@](C(=O)OC)(c3cc4c(cc3OC)N(C)[C@H]3[C@@](O)(C(=O)OC)[C@H](OC(C)=O)[C@]5(CC)C=CCN6CC[C@]43[C@@H]65)C2)C1 [Compound 40]		450 nM	6.7 nM	
CCC1(NC(=S)N(C)C)CC2CN(CCc3c([nH]c4ccccc34)C(C(=O)OC)(c3cc4c(cc3OC)N(C)C3C(O)(C(=O)OC)C(OC(C)=O)C5(CC)C=CCN6CCC43C65)C2)C1 (stereo not shown) [Compound 43]		250 nM	8.7 nM	activity difference between sensitive HCT116 and vinblastine-resistant HCT116/VM46 [2]: 10 fold
CCNC(=O)N(C)[C@@]1(CC)C[C@@H]2CN(CCc3c([nH]c4ccccc34)[C@@](C(=O)OC)(c3cc4c(cc3OC)N(C)[C@H]3[C@@](O)(C(=O)OC)[C@H](OC(C)=O)[C@]5(CC)C=CCN6CC[C@]43[C@@H]65)C2)C1 [Compound 47]		8500 nM	520 nM	fold decrease in activity between 15 and 47 ([3]; HCT116): 700 fold
